What all share (type): cell-based
One assay deals with T1, human P2X7 receptor (Homo sapiens, UniProt Q99572).
T1 construct: EST clones containing full-length cDNAs of mouse P2X1 (clone ID: 4189541) and human P2X7 receptor (clone ID: 5286944); host or cells: HEK293
T1 sequence (Q99572 1-595): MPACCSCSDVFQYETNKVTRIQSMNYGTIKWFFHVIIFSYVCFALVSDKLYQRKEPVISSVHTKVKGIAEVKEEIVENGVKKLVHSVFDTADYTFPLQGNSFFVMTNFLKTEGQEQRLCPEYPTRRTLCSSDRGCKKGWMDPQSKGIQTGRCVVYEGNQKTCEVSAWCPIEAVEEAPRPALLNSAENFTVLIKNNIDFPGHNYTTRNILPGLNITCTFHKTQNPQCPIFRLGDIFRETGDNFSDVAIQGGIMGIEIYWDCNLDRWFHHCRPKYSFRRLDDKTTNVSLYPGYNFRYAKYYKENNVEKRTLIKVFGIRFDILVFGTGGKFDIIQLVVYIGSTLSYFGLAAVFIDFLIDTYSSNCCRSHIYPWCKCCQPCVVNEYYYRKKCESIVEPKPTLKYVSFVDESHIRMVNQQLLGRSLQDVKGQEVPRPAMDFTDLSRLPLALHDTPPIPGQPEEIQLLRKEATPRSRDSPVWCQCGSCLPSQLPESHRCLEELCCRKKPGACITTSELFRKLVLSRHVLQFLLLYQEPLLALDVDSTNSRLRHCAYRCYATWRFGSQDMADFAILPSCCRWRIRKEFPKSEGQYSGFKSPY
The experiment in a line: Ethidium+ accumulation assay in human P2X7-expressing HEK293 cells. The note with it: 10 μM compound, ethidium+ accumulation induced by 6 μM BzATP, n = 3. The procedure:
1-2. Ethidium^+ Accumulation Assay at Human P2X7 Receptors
Human P2X7-expressing HEK293 cells were grown as monolayer culture at 37° C. in a humidified atmosphere of 5% CO2, DMEM supplemented with 10% fetal bovine serum. Cells were harvested with treatment of Trypsin/EDTA solution, collected by centrifugation (200 g for 5 min).
The cells were resuspended at 2.5×10^6 cells/mL in assay buffers, consisting of (in mM) HEPES 10, KCl 140, glucose 5, EDTA 1 (pH 7.4), and then ethidium bromide (100 μM) was added. Cell suspensions were added to 96 well plates containing the P2X7 receptor agonist, ATP or BzATP, at 2×10^5 cells/wells. Plates were incubated at 37° C. for 120 min and cellular accumulation of ethidium^+ was determined by measuring fluorescence with Bio-Tek instrument FL600 fluorescent plate reader (excitation wavelength of 530 nm and emission wavelength of 590 nm). When the effects of antagonists, such as PPADS, KN62, and test peptides were studied, antagonists were treated together with agonist without pre-incubation.

The target of another assay is T2, human P2X3 receptor (Homo sapiens, UniProt P56373).
T2 construct: expressed in transfected cells; host or cells: Xenopus oocytes (cRNA injected); cDNA from the Max-Planck Institute laboratory (Dr. W. Stuhmer and Dr. F. Soto)
T2 sequence (P56373 1-397): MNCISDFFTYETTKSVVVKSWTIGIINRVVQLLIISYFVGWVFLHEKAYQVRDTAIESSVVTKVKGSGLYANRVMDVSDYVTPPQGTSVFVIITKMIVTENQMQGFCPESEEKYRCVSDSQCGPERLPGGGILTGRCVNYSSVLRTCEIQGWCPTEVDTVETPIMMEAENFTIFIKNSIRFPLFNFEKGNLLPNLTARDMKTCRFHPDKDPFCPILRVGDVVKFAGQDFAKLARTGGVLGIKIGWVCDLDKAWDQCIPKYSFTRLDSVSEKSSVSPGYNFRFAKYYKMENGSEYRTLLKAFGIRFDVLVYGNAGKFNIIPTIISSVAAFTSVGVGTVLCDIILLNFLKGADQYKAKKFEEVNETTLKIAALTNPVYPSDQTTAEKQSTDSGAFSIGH
Description: Two-electrode voltage clamp, ATP-induced ion current in Xenopus oocytes expressing human P2X3. The note with it: for inhibition at 10 µM: read-out: % inhibition hP2X3; for inhibition at 0.1 µM: concentration of 100 nM, receptor not stated in the sentence (follows FIG. 2B, human P2X3), read-out: % inhibition; for Hill coefficient: concentration-inhibitory curve, 2 μM ATP (FIG. 1C, FIG. 2B); for IC50: concentration-response curve, 2 μM ATP, mean of four observations, read-out: IC50 value. The procedure:
Antagonistic Activity at Recombinant Mouse P2X1 and Human P2X3 Receptors
(§1) Xenopus oocytes were harvested and prepared with method as previously described in publications. Defolliculated oocytes were injected cytosolically with mouse P2X1 and human P2X3 receptor cRNA ([…], 1 μg/mL), respectively, incubated for 24 hrs at 18° C. in Barth's solution and kept for up to 12 days at 4° C. until used in electrophysiological experiments. ATP-activated membrane currents (Vh=−70 mV) were recorded from cRNA-injected oocytes using the twin-electrode voltage-clamp technique (Axoclamp 2B amplifier). Voltage recording (1-2 MΩ tip resistance) and current-recording microelectrodes (5 MΩ tip resistance) were filled with 3.0 M KCl. Oocytes were held in an electrophysiological chamber and superfused with Ringer's solution (5 mL/min, at 18° C.) containing (mM) NaCl, 110; KCl, 2.5; HEPES, 5; BaCl2, 1.8, adjusted to pH 7.5. ATP was superfused over the oocytes for 60-120s then washed out for a period of 20 min. For inhibition curves, data were normalized to the current evoked by ATP, at pH 7.5. Test substances were added for 20 min prior to ATP exposure; all peptides were tested for reversibility of their effects. The concentration required to inhibit the ATP response by 50% (IC50) was taken from Hill plots constructed using the formula: log(I/Imax−1), where I is the current evoked by ATP in the presence of an antagonist. Data are presented as mean±SEM (n=4) for the data from different batches of oocytes.
In general terms: In two-electrode clamp one electrode senses voltage and the other passes current.

Another assay deals with T3, mouse P2X1 receptor (Mus musculus, UniProt P51576).
T3 construct: EST clones containing full-length cDNAs of mouse P2X1 (clone ID: 4189541) and human P2X7 receptor (clone ID: 5286944); host or cells: Xenopus oocytes (cRNA injected)
T3 sequence (P51576 1-399): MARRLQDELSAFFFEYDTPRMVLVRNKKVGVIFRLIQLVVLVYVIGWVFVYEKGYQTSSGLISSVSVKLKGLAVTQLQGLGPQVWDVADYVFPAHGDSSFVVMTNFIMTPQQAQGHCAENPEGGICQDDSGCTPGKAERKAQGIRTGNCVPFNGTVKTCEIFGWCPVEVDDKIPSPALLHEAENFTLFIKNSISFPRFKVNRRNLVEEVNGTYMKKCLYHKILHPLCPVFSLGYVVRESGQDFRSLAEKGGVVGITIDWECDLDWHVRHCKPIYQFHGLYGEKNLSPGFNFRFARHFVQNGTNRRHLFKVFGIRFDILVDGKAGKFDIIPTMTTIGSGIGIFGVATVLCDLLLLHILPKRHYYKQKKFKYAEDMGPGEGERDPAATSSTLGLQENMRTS
The experiment in a line: Two-electrode voltage clamp, ATP-induced ion current in Xenopus oocytes expressing mouse P2X1. The note with it: for inhibition at 10 µM / % inhibition mP2X1: Table 2, 10 μM compound, ion current induced by 2 μM ATP, mean ± SEM, n = 4; for inhibition at 10 µM: read-out: % inhibition mP2X1; for Hill coefficient: concentration-inhibitory curve, 2 μM ATP (FIG. 1B, FIG. 2A); for IC50: concentration-response curve, 2 μM ATP, mean of four observations, read-out: IC50 value. The procedure:
1-1. Antagonistic Activity at Recombinant Mouse P2X1 and Human P2X3 Receptors
as §1

Where [1] appears, read: Table 2, 10 μM compound, ion current induced by 2 μM ATP, mean ± SEM, n = 4.

From patent US9546139B2, “Pyridine carboxylic acid based compound used as a P2X1 and P2X3 receptor antagonist, a production method for the same and a composition comprising the same” (GWANGJU INSTITUTE OF SCIENCE AND TECHNOLOGY, priority 2010, dated 2017) come the findings set out here.

The term inhibition denotes how much of the control response was suppressed. Usually Hill coefficient stands for the slope factor of the fitted curve. For orientation: IC50 means the concentration that inhibits the measured activity by half.

On to `COc1ccccc1CCc1nc(C)c(O)c(C(=O)O)c1C(=O)O` [Compound 41, 5-Hydroxy-2-[2-(2-methoxy-phenyl)-ethyl]-6-methyl-pyridine-3,4-dicarboxylic acid], for which the “% inhibition hP2X7” value at human P2X7 receptor was “inactive”. Moreover, the inhibition at 10 µM amounted to 34.5 ± 4.3% on human P2X3 receptor (setting [1]) and 49.8 ± 5.4% on mouse P2X1 receptor.

With `Cc1nc(CCc2ccc(C(=O)O)cc2)c(C(=O)O)c(C(=O)O)c1O` [Compound 39, 2-[2-(4-Carboxy-phenyl)-ethyl]-5-hydroxy-6-methyl-pyridine-3,4-dicarboxylic acid], the “% inhibition hP2X7” value on human P2X7 receptor is “inactive”. Besides, the inhibition at 10 µM on human P2X3 receptor (setting [1]) is 68.9 ± 11.7%. Also, on human P2X3 receptor, the inhibition at 0.1 µM was determined as 34%, the Hill coefficient is reported as −0.58±0.27 and the IC50 was 339 nM. Moreover, on mouse P2X1 receptor, the “% inhibition mP2X1” value came to 82.7 ± 6.0%, the inhibition at 10 µM was determined as 82%, the Hill coefficient is −1.00±0.09 and the IC50 stood at 186 nM.

As to `CC(=O)c1c(O)c(C)nc(Cc2ccccc2)c1C(=O)O` [Compound 44, 4-acetyl-2-benzyl-5-hydroxy-6-methylnicotinic acid], the “% inhibition hP2X7” value at human P2X7 receptor is “inactive”. Moreover, the inhibition at 10 µM at human P2X3 receptor (setting [1]) is 18.3 ± 6.4%. Besides, at mouse P2X1 receptor, the “% inhibition mP2X1” value is given as 44.2 ± 4.0% and the inhibition at 10 µM turned out to be 46%.

Take `COc1ccc(CCc2nc(C)c(O)c(C(C)=O)c2C(=O)O)cc1` [Compound 46, 4-acetyl-5-hydroxy-2-(4-methoxyphenethyl)-6-methylnicotinic acid]: on human P2X7 receptor, the “% inhibition hP2X7” value was “inactive”. For the same molecule, the figures for the inhibition at 10 µM at human P2X3 receptor (setting [1]) and on mouse P2X1 receptor were 42.2 ± 7.5% and 52 ± 7.1%, respectively.

For the molecule `COc1ccc(CCc2nc(C)c(O)c(C(=O)O)c2C(=O)O)cc1` [Compound 37, 5-Hydroxy-2-[2-(4-methoxy-phenyl)ethyl]-6-methyl-pyridine-3,4-dicarboxylic acid], the “% inhibition hP2X7” value at human P2X7 receptor is “inactive”. For the same molecule, the inhibition at 10 µM at human P2X3 receptor (setting [1]) stood at 59.8 ± 4.6%; on mouse P2X1 receptor it was 78%. In addition, the “% inhibition mP2X1” value at mouse P2X1 receptor was 77.0 ± 3.8%.

As to `COc1ccc(CCc2nc(C)c(O)c(C=O)c2/C=C/C(=O)O)cc1` [Compound 64, (E)-3-(4-formyl-5-hydroxy-2-(4-methoxyphenethyl)-6-methylpyridin-3-yl)acrylic acid], on human P2X7 receptor, the “% inhibition hP2X7” value was “inactive”. In addition, the inhibition at 10 µM on human P2X3 receptor (setting [1]) stood at 69.4 ± 7.5%; on mouse P2X1 receptor it was 51.4 ± 4.8%.

For `Cc1nc(CC(c2ccccc2)c2ccccc2)c(C(=O)O)c(C(=O)O)c1O` [Compound 51, 2-(2,2,-diphenylethyl)5-hydroxy-6-methylpyridine-3,4-dicarboxylic acid], the “% inhibition hP2X7” value at human P2X7 receptor is “inactive”. For the same molecule, the “% inhibition hP2X3” value at human P2X3 receptor (setting [1]) is 62.9 ± 7.1%. Besides, the “% inhibition mP2X1” value on mouse P2X1 receptor is given as 53.9 ± 5.1%.

For the molecule `Cc1nc(Cc2cccc3ccccc23)c(C(=O)O)c(C(=O)O)c1O` [Compound 50, 5-Hydroxy-6-methyl-2-(naphthalene-1-ylmethyl)pyridine-3,4-dicarboxylic acid], the “% inhibition hP2X7” value on human P2X7 receptor was “inactive”. Moreover, the inhibition at 10 µM on human P2X3 receptor (setting [1]) was found to be 67.9 ± 5.2%; on mouse P2X1 receptor, 48.3 ± 4.1%.

In the case of `Cc1nc(C=Cc2ccccc2)c(C(=O)O)c(C(=O)O)c1O` [Compound 38, 5-Hydroxy-6-methyl-2-styryl-pyridine-3,4-dicarboxylic acid], the “% inhibition hP2X7” value at human P2X7 receptor is “inactive”. For the same molecule, the inhibition at 10 µM on human P2X3 receptor (setting [1]) was 48.4 ± 9%. For the same molecule, on human P2X3 receptor, the inhibition at 0.1 µM was determined as 19.2%, the Hill coefficient is recorded as −0.52±0.12 and the IC50 is 782 nM. On mouse P2X1 receptor, the inhibition at 10 µM is 71.4 ± 4.3%, the Hill coefficient is −0.98±0.11 and the concentration for half-maximal inhibition (IC50) is 509 nM.

For the molecule `COc1ccccc1/C=C/c1nc(C)c(O)c(C(C)=O)c1C(=O)O` [Compound 49, (E)-4-acetyl-5-hydroxy-2-(2-methoxystyryl)-6-methylnicotinic acid], the “% inhibition hP2X7” value at human P2X7 receptor was “inactive”. Moreover, the inhibition at 10 µM on human P2X3 receptor (setting [1]) is 6.3 ± 2.3%; at mouse P2X1 receptor, 11.4 ± 3.3%.

`COc1cccc(CCc2nc(C)c(O)c(C(=O)O)c2C(=O)O)c1` [Compound 40, 5-Hydroxy-2-[2-(3-methoxy-phenyl)-ethyl]-6-methyl-pyridine-3,4-dicarboxylic acid]: the “% inhibition hP2X7” value on human P2X7 receptor was “inactive”. The inhibition at 10 µM on human P2X3 receptor (setting [1]) was 39.3 ± 3.8%; on mouse P2X1 receptor, 52.4 ± 6.2%.

As to `Cc1nc(CCc2ccccc2)c(C(=O)O)c(C(=O)O)c1O` [Compound 36, 5-Hydroxy-6-methyl-2-phenethyl-pyridine-3,4-dicarboxylic acid], the “% inhibition hP2X7” value at human P2X7 receptor is “inactive”. The inhibition at 10 µM on human P2X3 receptor (setting [1]) was found to be 51 ± 9.8%. For the same molecule, on human P2X3 receptor, the inhibition at 0.1 µM stood at 38.3%, the Hill coefficient is listed as −0.63±0.20 and the IC50 was 432 nM. On mouse P2X1 receptor, the “% inhibition mP2X1” value was 73.4 ± 9.7%, the inhibition at 10 µM is 77%, the Hill coefficient is reported as −1.03±0.21 and the IC50 was found to be 361 nM.

Consider `COc1ccc(CCc2nc(C)c(O)c(C=O)c2C(=O)O)cc1` [Compound 67, 4-formyl-5-hydroxy-2-(4-methoxyphenethyl)-6-methylnicotinic acid], for which, at human P2X7 receptor, the “% inhibition hP2X7” value is “inactive”. In addition, the figures for the inhibition at 10 µM on human P2X3 receptor (setting [1]) and at mouse P2X1 receptor were 72.6 ± 4.3% and 52.8 ± 5.6%, respectively.
